In patent US20110016579A1, “Gene of transporter selective to mugineic acid-iron complex” (SUNTORY LIMITED, priority 2005, published 2011):

Tests used:
HvYS1 [1] = assay: Growth of fet3fet4 yeast (DDY4 strain) expressing HvYS1 on different iron sources; format: cell-based, barley (Hordeum vulgare L.); details: 30° C., 4 days
Description: Since DDY4 strain is an yeast that is defective in the divalent iron-absorption system, is unable to grow in an iron-limiting medium (Eide, D. et al., Proc. Natl. Acad. Sci. USA, 1996, vol. 93, pp. 5624-5628) and is unable to grow by taking advantage of mugineic acid-iron (III) complex (Loulergue, C., Gene 1998, vol. 225, pp. 47-57), the yeast having an activity power for selectively absorbing mugineic acid-iron complex can grow on a medium supplemented with mugineic acid-iron(III) complex but the yeast having no above-mentioned activity power cannot grow on the medium.
(§1) Since double mutant fet3fet4 (DDY4 strain) of budding yeast (Saccharomyces cerevisiae) is defective in two genes responsible for absorption of divalent iron (fet3 (a gene for absorbing divalent iron after converting trivalent iron into divalent iron) and fet4 (a gene for absorbing divalent iron as it is)), the yeast can grow neither on an iron-limiting medium (Eide, D. et al., Proc. Natl. Acad. Sci. USA, 1996, vol. 93, pp. 5624-5628) nor by taking advantage of iron complexed with mugineic acid (Loulergue, C., Gene, 1998, vol. 225, pp. 47-57). To investigate the function of HvYS1 in iron transport, the present inventors have studied, using DDY4 strain into which HvYS1 cDNA has been introduced, whether the DDY4 strain in which the gene is expressed is able to grow on a medium containing Fe(III).MA as sole source of iron.
(§2) The following three plasmids were independently introduced into each of DDY4 strain and DY1457 (wild) strain: (1) a plasmid into which HvYS1 cDNA cloned at the NotI site of the expression vector pFL61 (by ATCC Co.) was inserted; (2) a plasmid into which ZmYS1 cDNA (Curie, C. et al., Nature, 2001, vol. 49, pp. 346-349) cloned in the same pFL61 vector was inserted; and (3) the pFL61 vector as a reference into which none of the above-mentioned genes was inserted.
Subsequently, the inventors conducted cultivation tests by mixing three different iron sources, or Fe(III).citrate, Fe(III).MA, and Fe(III).NA, with the medium in order to determine substrate selectivity, if any, of HvYS1. The yeast was cultivated in minimum media—Ura supplemented with 50 μM Fe(III).citrate, 10 μM Fe(III).MA, or 10 μM Fe(II).NA, and 10 μM FeCl2 or FeCl3 as a blank. Also, 10 μM of BPDS that is a potent chelating agent of divalent iron was added to the medium supplemented with 10 μM of Fe(III).MA in order to investigate whether the growth of the yeast is inhibited. Fe(III).MA was prepared according to von Wiren, N. et al. , Biochem. Biophys. Acta, 1998, vol. 1371, pp. 143-155. Nicotinamine was purchased from T. Hasegawa Co., and Fe(II).NA was prepared according to Schaaf, G. et al. , J. Biol. Chem., 2004, vol. 279, pp. 9091-9096. The yeast was cultivated at 30° C. for 4 days. Three solutions of the yeast culture (diluted to optical densities (OD) of 0.2, 0.02 and 0.002, respectively, at a wavelength of 600 nm) were spotted on a plate.

ZmYS1 = target: T1, ZmYS1 (Zea mays, UniProt Q9AY27); assay: Growth of fet3fet4 yeast (DDY4 strain) expressing ZmYS1 on different iron sources; format: cell-based, maize; details: DDY4 strain expressing ZmYS1, 10 μM, FIG. 3
T1 construct: expressed in transfected cells; host or cells: Saccharomyces cerevisiae fet3fet4 double mutant (DDY4 strain), vector pFL61
T1 sequence (Q9AY27 1-682): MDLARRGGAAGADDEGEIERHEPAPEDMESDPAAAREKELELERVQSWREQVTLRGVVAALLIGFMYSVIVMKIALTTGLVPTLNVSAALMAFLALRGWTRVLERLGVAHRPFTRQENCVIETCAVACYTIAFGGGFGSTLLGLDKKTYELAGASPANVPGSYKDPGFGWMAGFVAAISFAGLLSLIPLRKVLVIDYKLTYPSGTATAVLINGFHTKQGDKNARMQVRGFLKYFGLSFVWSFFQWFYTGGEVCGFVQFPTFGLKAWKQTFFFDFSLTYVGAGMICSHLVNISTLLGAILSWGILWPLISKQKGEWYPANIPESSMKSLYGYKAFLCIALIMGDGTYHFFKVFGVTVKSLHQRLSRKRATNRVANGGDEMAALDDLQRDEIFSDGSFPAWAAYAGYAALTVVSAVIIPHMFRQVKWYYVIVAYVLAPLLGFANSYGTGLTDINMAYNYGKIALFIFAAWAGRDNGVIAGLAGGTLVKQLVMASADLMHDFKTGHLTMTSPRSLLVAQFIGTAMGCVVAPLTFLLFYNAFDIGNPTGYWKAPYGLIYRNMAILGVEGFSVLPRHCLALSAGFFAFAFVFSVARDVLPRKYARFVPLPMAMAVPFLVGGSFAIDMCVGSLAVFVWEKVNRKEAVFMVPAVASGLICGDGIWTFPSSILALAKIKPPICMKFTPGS
Description: as §1
as §2, with “inserted. […]” for “inserted.”

HvYS1 [2] = assay: Electrophysiological activity (voltage clamp) in HvYS1-expressing Xenopus oocyte cells; format: cell-based, barley (Hordeum vulgare L.); details: final concentration of 50 μM, fixed voltage of −60 mV; compared with other mugineic acid-metal complexes and nicotianamine Fe(II) complex
Description: The activity power for selectively absorbing mugineic acid-iron complex may be also confirmed by observing cell membrane voltage changes using Xenopus oocyte cells. The voltage change of the cell membrane may be obtained by directly measuring the voltage difference between the inside and outside of the cell membrane by, for example, a membrane voltage clamp method, wherein the voltage change of the oocyte cell membrane occurs in accordance with the absorption of mugineic acid-iron complex via the transporter protein expressed in the oocyte cell after adding a solution containing mugineic acid-iron complex to the oocyte cell into which the transporter gene of the invention has been introduced. […]
Subsequently, the inventors have formed mugineic acid complexes of copper, zinc, nickel, manganese, and cobalt as substrates other than Fe(III).MA as in the case of iron in order to determine substrate selectivity, if any, of HvYS1 protein. The oocyte cells in which HvYS1 is expressed were set in a chamber filled with the ND-96 solution, and electrophysiological activity was measured after spraying 10 μL of each 5 mM substrate (final concentration of 50 μM). […] ORIGIN 6.1 software (by Microcal Software Co.) was used for programming and storage of voltage, and analysis of the recorded and stored data. […]
Target sequence in this assay (as listed by the source): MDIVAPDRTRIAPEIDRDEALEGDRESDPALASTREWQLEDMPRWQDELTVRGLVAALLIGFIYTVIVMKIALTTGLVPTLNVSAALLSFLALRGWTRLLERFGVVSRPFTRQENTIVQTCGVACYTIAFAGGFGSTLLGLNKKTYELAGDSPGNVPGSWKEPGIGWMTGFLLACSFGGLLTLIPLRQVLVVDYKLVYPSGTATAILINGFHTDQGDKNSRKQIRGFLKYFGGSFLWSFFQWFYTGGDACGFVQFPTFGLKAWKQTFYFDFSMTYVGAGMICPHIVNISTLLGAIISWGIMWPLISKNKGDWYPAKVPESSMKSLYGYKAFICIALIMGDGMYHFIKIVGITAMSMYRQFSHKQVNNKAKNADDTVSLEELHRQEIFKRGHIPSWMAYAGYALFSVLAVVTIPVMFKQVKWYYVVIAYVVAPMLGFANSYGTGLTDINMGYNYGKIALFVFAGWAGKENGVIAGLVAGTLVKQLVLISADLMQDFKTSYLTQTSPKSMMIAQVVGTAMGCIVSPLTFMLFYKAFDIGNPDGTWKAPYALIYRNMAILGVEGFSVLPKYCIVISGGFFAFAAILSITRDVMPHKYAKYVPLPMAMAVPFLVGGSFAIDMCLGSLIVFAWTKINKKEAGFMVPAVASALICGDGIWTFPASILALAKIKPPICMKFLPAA

Molecule: [Cl][Fe][Cl] [FeCl2]
- growth of DDY4 strain expressing HvYS1 with the substance as sole iron source (HvYS1 [1]; 10 μM in minimum media -Ura): did not grow

Molecule: [Cl][Fe]([Cl])[Cl] [FeCl3]
- growth of DDY4 strain expressing HvYS1 with the substance as sole iron source (HvYS1 [1]; 10 μM in minimum media -Ura): did not grow

Molecule: citric acid-iron complex (iron-ammonium citrate complex) [Fe(III).citrate]
- growth of DDY4 strain expressing HvYS1 with the substance as sole iron source (HvYS1 [1]; 50 μM in minimum media -Ura): did not grow

Molecule: mugineic acid-iron(III) complex [Fe(III).MA]
- growth of DDY4 strain expressing HvYS1 in the presence of BPDS (HvYS1 [1]; 10 μM Fe(III).MA plus 10 μM BPDS (Fe(II) chelating agent)): grew
- growth of DDY4 strain expressing HvYS1 with the substance as sole iron source (HvYS1 [1]; 10 μM in minimum media -Ura): grew at the same level as DDY4 strain expressing ZmYS1
- transport of the iron complex by ZmYS1 (ZmYS1): transports
- voltage change in HvYS1-expressing oocyte cells (HvYS1 [2]): overwhelmingly strong voltage change

Molecule: nicotianamine-iron complex [Fe(II).NA]
- growth of DDY4 strain expressing HvYS1 with the substance as sole iron source (HvYS1 [1]; 10 μM in minimum media -Ura): does not absorb Fe(II).NA, or growth was strongly inhibited
- transport of the iron complex by ZmYS1 (ZmYS1): transports
